Measured values reported in US20140017701A1, “CHIMERIC PDK1 KINASES” (priority 2011, published 2014).

Columns and labels:
[1] = target: T1, GST-PDK1 1-556 with PIF-pocket mutated to mimic PKCz (Homo sapiens, UniProt O15530, F157L/I118V/I119H/L113V/R131K/T128Q/T148C/V124I); experiment: Activity assay with full length GST-PDK1 1-556 mutated to mimic the PIF-pocket of PKCz; format: biochemical; details: without the dm mutation
T1 construct: a GST-PDK1 1-556 (full length, without the dm mutation); made in house; host or cells: HEK293 (general method for GST-fused kinases)
T1 sequence (O15530 1-556 L113V/I118V/I119H/V124I/T128Q/R131K/T148C/F157L): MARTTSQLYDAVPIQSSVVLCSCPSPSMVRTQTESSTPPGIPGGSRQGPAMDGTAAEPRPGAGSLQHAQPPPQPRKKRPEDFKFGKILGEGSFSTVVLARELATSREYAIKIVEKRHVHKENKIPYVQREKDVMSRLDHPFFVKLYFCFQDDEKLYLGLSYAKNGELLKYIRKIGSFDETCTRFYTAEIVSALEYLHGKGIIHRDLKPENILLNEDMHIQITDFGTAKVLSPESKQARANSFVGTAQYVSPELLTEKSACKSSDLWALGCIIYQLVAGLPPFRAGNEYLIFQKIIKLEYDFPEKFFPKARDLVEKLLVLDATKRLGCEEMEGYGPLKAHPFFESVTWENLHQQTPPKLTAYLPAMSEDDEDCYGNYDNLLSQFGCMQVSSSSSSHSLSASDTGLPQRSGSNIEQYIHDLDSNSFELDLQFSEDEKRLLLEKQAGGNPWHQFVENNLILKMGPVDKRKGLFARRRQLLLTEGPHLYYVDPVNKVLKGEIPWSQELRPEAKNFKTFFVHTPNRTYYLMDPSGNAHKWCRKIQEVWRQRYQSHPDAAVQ
Text: Thus, non-mutated PDK1 50-359 protein and other constructs of PDK1 lacking the (dm) mutations, when mutated at the PIF-pocket to mimic the PIF-pocket of other AGC kinases, are also expected to transduce the conformational change similarly to the dmPDK1 50-359. […] The preferred construct for mutagenesis to create the chimeric proteins is dmPDK1 50-359. Also preferred is the use of PDK1 50-359 which can be produced in high quality for crystallization studies or other suitable constructs, for example PDK1 76-359 that corresponds to a sequence of aminoacids observed in the crystals of PDK1 in different crystal packings.

S6K1-T2-[Thr412Glu] = target: T2, S6K1-T2-[Thr412Glu] (Homo sapiens, UniProt P23443, T412E); experiment: Protein kinase activity assay, S6K1; format: biochemical; details: Table I a; percentage of catalytic activity compared to DMSO; Crosstide substrate
T2 construct: His; made in house; host or cells: Sf9 insect cells (baculovirus)
T2 sequence (P23443 1-421 T412E limits assumed): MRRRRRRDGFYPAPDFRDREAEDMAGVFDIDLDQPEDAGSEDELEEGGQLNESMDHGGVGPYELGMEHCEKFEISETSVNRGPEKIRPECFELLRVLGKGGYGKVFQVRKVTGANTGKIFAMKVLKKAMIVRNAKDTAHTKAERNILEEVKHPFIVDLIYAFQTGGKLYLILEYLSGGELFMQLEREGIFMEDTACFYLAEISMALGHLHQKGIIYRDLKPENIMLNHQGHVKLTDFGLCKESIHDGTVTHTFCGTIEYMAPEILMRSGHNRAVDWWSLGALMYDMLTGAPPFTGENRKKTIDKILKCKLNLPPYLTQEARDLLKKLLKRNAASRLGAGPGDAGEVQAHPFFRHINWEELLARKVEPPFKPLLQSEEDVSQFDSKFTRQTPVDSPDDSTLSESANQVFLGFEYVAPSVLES
Experimental: For the expression and purification of protein kinases fused to GST, pEBG-2T derived plasmids were transfected into 8×14.5 cm dishes containing HEK293 cells using the PEI method ([…] and […]/14.5 cm dish). The cells were lysed after 48 h in a buffer containing 50 mM Tris-HCl pH 7.5, 1 mM EGTA, 1 mM EDTA, 1% (w/v) Triton X-100, 1 mM sodium orthovanadate, […], 5 mM sodium pyrophosphate, 0.27 M sucrose, 0.1% β-mercaptoethanol, and 1 tablet of protease inhibitor cocktail per 50 ml of buffer. Lysates were frozen in liquid nitrogen and kept at −80° C. until required. Purification involved incubation of the cleared lysate with glutathione sepharose, followed by 2 washes with 0.5 M NaCl in lysis buffer, 8 washes with a buffer containing 50 mM Tris-HCl, 0.1 mM EGTA and 0.1% β-mercaptoethanol (buffer A), and a last wash with buffer A supplemented with 0.26 M sucrose. […]
The protein kinase activity assays were performed essentially as previously described (Engel, M. et al. Embo J 25, 5469-80 (2006)). The assays were done in a 96-well format and 4 μl aliquots spotted on P81 phospho-cellulose papers (Whatman) using epMotion 5070 (Eppendorf), washed in 0.01% phosphoric acid, dried, and then exposed and analyzed using PhosphoImager technology (FLA-9000 Starion, Fujifilm). […]

Row | Effect on activity of GST-PDK1 1-556 mutated to mimic PIF-pocket of PKCz [1] | Activity (%) S6K1 (S6K1-T2-[Thr412Glu]) [%] | SMILES
1 | inhibited | 41 | Cl.O=C(O)CC(Cc1nc2cc(-c3ccccc3)ccc2[nH]1)c1ccc(Cl)cc1 (stereo not drawn) [PS168]
2 |  | 47 | Cl.O=C(O)CC(Cc1nc2c(Cl)cc(Cl)cc2[nH]1)c1ccc(Cl)cc1 (stereo not drawn) [PS171]
